According to ChEMBL document CHEMBL1201862, “PubChem BioAssay data set” (2004):
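Dose response: 5 concentrations. Exposure: 48 h. Format: 96-well plates. Endpoint: linear interpolation; highest concentration if not reached. Abbreviation: GI50, concentration required for 50% inhibition of growth.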 Active and inactive are the calls of the source. Cut-off read from the data, not from the text of the source: active = GI50 up to about 1.1 µM and inactive = higher.

Legend:
Assay in all cases: inhibition of tumour cell growth, NCI panel, 48 h
CCRF-CEM = test system: CCRF-CEM
COLO 205 = test system: COLO 205
HCC 2998 = test system: HCC 2998
HOP-92 = test system: HOP-92
HT-29 = test system: HT-29
KM12 = test system: KM12
M14 = test system: M14
Malme-3M = test system: Malme-3M
OVCAR-5 = test system: OVCAR-5
RXF 393 = test system: RXF 393
SK-MEL-5 = test system: SK-MEL-5
SN12C = test system: SN12C
SNB-19 = test system: SNB-19
SNB-78 = test system: SNB-78
SW-620 = test system: SW-620
UO-31 = test system: UO-31
HOP-62 = test system: HOP-62
NCI/ADR-RES = test system: NCI/ADR-RES
Hs-578T = test system: Hs-578T
MDA-N = test system: MDA-N

Measured: GI50

COc1nc(N)c(C(=O)CCl)c(=O)n1C
inactive: CCRF-CEM 15.1 µM | COLO 205 10.6 µM | HCC 2998 9.68 µM | HOP-92 4.66 µM | HT-29 16 µM | KM12 14.3 µM | M14 > 10 µM | Malme-3M 10.5 µM | OVCAR-5 20.2 µM | RXF 393 7.35 µM | SK-MEL-5 15.1 µM | SN12C 17.5 µM | SNB-19 17.7 µM | SNB-78 12 µM | SW-620 12.4 µM | UO-31 22 µM

O=C1c2ccccc2OCC1/C=N/O (stereo unspecified)
inactive: CCRF-CEM > 100 µM | HCC 2998 > 100 µM | HOP-62 > 100 µM | HOP-92 > 55.1 µM | HT-29 62.7 µM | KM12 96.8 µM | Malme-3M > 100 µM | NCI/ADR-RES > 100 µM | OVCAR-5 > 100 µM | RXF 393 32.4 µM | SK-MEL-5 > 85.5 µM | SN12C > 80.5 µM | SNB-78 > 72.9 µM | SW-620 > 100 µM | UO-31 > 100 µM

Cn1cc(NC(=O)c2cc(NC(=O)CCCCCCCC(=O)Nc3cc(C(=O)Nc4cc(C(=O)NCCC(=N)N)n(C)c4)n(C)c3)cn2C)cc1C(=O)NCCC(=N)N
inactive: CCRF-CEM 25.3 µM | COLO 205 13.2 µM | HCC 2998 16.1 µM | HOP-62 > 100 µM | HOP-92 > 100 µM | HT-29 63.1 µM | KM12 7.53 µM | M14 27.9 µM | Malme-3M 5.75 µM | OVCAR-5 > 100 µM | RXF 393 17 µM | SK-MEL-5 7.53 µM | SN12C 12.6 µM | SNB-19 55.1 µM | SNB-78 35.2 µM | SW-620 32.7 µM | UO-31 > 100 µM

COc1cc(/C=C(/C#N)C(N)=O)ccc1O
inactive: CCRF-CEM > 100 µM | COLO 205 > 100 µM | HCC 2998 > 60.5 µM | HOP-62 > 100 µM | HOP-92 > 56.8 µM | HT-29 > 100 µM | KM12 > 100 µM | Malme-3M 53.6 µM | NCI/ADR-RES > 100 µM | OVCAR-5 > 100 µM | SK-MEL-5 > 22.2 µM | SN12C > 100 µM | SNB-19 > 100 µM | SNB-78 > 100 µM | SW-620 > 100 µM | UO-31 > 41.5 µM

O=C(/N=C(/Nc1ccccc1)SCS/C(=N\C(=O)c1ccco1)Nc1ccccc1)c1ccco1
inactive: CCRF-CEM > 100 µM | COLO 205 > 100 µM | HCC 2998 53.7 µM | HOP-62 19.5 µM | HOP-92 18.7 µM | HT-29 > 100 µM | KM12 > 100 µM | M14 > 100 µM | Malme-3M > 100 µM | OVCAR-5 > 100 µM | RXF 393 15.1 µM | SK-MEL-5 61.5 µM | SN12C 84.1 µM | SNB-19 24 µM | SNB-78 37.1 µM | SW-620 > 100 µM | UO-31 44.8 µM

CN(C)CCC1(C2=CCCC2)CC/C(=C\c2ccc3c(c2)OCO3)C1=O (stereo unspecified)
inactive: CCRF-CEM 16 µM | COLO 205 18.7 µM | HCC 2998 15.8 µM | HOP-92 11.4 µM | HT-29 12.2 µM | KM12 15.8 µM | M14 14.7 µM | Malme-3M 15.6 µM | OVCAR-5 15.8 µM | RXF 393 9.14 µM | SK-MEL-5 14.1 µM | SN12C 14.5 µM | SNB-19 18.2 µM | SNB-78 16.8 µM | SW-620 15.8 µM | UO-31 7.52 µM

CC1=C2C(O)C(C(C)C(=O)NCC(C)C)CCC2(C)C=CC1=O (stereo unspecified)
inactive: CCRF-CEM > 100 µM | COLO 205 > 100 µM | HCC 2998 > 100 µM | HOP-62 > 100 µM | HOP-92 > 100 µM | HT-29 > 100 µM | KM12 > 100 µM | NCI/ADR-RES > 100 µM | OVCAR-5 > 100 µM | RXF 393 > 100 µM | SK-MEL-5 > 100 µM | SN12C > 100 µM | SNB-19 > 100 µM | SNB-78 > 100 µM | SW-620 > 100 µM | UO-31 > 100 µM

C=CC12CN(C)C3C4COC(CC41)C1(C(=O)Nc4ccccc41)C32 (stereo unspecified)
inactive: CCRF-CEM 96.6 µM | COLO 205 > 149 µM | HCC 2998 > 151 µM | HOP-62 > 147 µM | HOP-92 > 140 µM | HT-29 > 145 µM | KM12 168 µM | Malme-3M 174 µM | NCI/ADR-RES > 165 µM | OVCAR-5 > 200 µM | RXF 393 > 179 µM | SK-MEL-5 > 200 µM | SN12C > 200 µM | SNB-19 > 200 µM | SNB-78 176 µM | SW-620 174 µM | UO-31 > 181 µM

CC#N.O[C@@H]1CCCC[C@H]1O.O[C@@H]1CCCC[C@H]1O.[TeH2]
inactive: CCRF-CEM 20.2 µM | COLO 205 > 100 µM | HCC 2998 > 100 µM | HOP-62 53.5 µM | HOP-92 26.2 µM | HT-29 28.2 µM | KM12 42.7 µM | M14 > 100 µM | Malme-3M > 100 µM | OVCAR-5 23.8 µM | RXF 393 > 100 µM | SK-MEL-5 33.3 µM | SN12C 29.1 µM | SNB-19 39.8 µM | SNB-78 > 100 µM | SW-620 16.7 µM | UO-31 47 µM

CCCCCCCCCCCCCCNCC(OC)OC
inactive: CCRF-CEM 9.18 µM | COLO 205 14.4 µM | HCC 2998 18.6 µM | HOP-62 16.7 µM | HOP-92 10.2 µM | HT-29 3.78 µM | KM12 13.3 µM | M14 14.1 µM | Malme-3M 19.8 µM | OVCAR-5 14.6 µM | RXF 393 14.7 µM | SK-MEL-5 15.2 µM | SN12C 15.1 µM | SNB-19 17.9 µM | SNB-78 17.4 µM | SW-620 16.1 µM | UO-31 12.8 µM

NS(=O)(=O)c1ccc(NC(=O)c2cccc3cc4ccccc4nc23)cc1
inactive: CCRF-CEM 7.71 µM | COLO 205 12.2 µM | HCC 2998 > 100 µM | HOP-62 > 58.6 µM | HOP-92 15.1 µM | HT-29 8.3 µM | Hs-578T 8.53 µM | KM12 11.3 µM | M14 > 72.1 µM | MDA-N 13 µM | Malme-3M 12.2 µM | NCI/ADR-RES 11.8 µM | OVCAR-5 > 96.2 µM | RXF 393 17.7 µM | SK-MEL-5 17.3 µM | SN12C 20.8 µM | SNB-19 28.3 µM | SNB-78 > 100 µM | SW-620 6.04 µM | UO-31 8.07 µM

CCCc1nc(NC#N)nc(C(=O)NC23CC4CC(CC(C4)C2)C3)c1C
inactive: CCRF-CEM > 100 µM | COLO 205 > 100 µM | HCC 2998 > 100 µM | HOP-62 > 100 µM | HOP-92 > 100 µM | HT-29 > 100 µM | KM12 > 100 µM | M14 > 100 µM | Malme-3M > 100 µM | OVCAR-5 > 100 µM | RXF 393 > 100 µM | SK-MEL-5 > 100 µM | SN12C > 100 µM | SNB-19 > 100 µM | SNB-78 > 100 µM | SW-620 > 100 µM | UO-31 > 100 µM
